Experimental findings from patent publication US9815819B2, “Complement pathway modulators and uses thereof” (priority 2012, dated 2017) are described below.

As a reminder, the IC50 is the concentration needed to halve the response being measured.

This assay deals with Recombinant human factor D (Homo sapiens (Human), UniProt P00746). In words: Human Complement Factor D Assay: Method 1. The format is biochemical. To be noted: Factor D inhibition, Method 1: 10 nM factor D, 1 hour incubation with compound at room temperature, substrate Z-Lys-thiobenzyl, fluorescence readout; read-out: IC50.
Chain of Recombinant human factor D (P00746 26-253): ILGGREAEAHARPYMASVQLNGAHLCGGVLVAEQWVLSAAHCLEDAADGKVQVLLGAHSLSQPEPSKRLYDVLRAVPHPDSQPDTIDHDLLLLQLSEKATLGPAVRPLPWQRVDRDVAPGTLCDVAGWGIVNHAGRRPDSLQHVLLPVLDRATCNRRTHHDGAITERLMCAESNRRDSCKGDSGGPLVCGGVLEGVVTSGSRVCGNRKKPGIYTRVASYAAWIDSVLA
Procedure: Recombinant human factor D (expressed in E. coli and purified using standard methods) at 10 nM concentration is incubated with test compound at various concentrations for 1 hour at room temperature in 0.1 M Hepes buffer, pH 7.5, containing 1 mM MgCl2, 1 M NaCl and 0.05% CHAPS. […] IC50 values are calculated from percentage of inhibition of complement factor D-activity as a function of test compound concentration.
Turning to `CC(=O)c1nn(CC(=O)N2[C@@H]3C[C@@H]3C[C@H]2C(=O)NC2CC(c3ccccc3)C2)c2ncccc12` (stereo partly drawn) [Example 35, (1R,3S,5R)-2-[2-(3-Acetyl-pyrazolo[3,4-b]pyridin-1-yl)-acetyl]-2-aza-bicyclo[3.1.0] hexane-3-carboxylic acid (3-phenyl-cyclobutyl)-amide], the IC50 was found to be 902 nM.

With `CC(=O)c1nn(CC(=O)N2[C@@H]3C[C@@H]3C[C@H]2C(=O)NC2CC(c3ccccc3F)C2)c2ncccc12` (stereo partly drawn) [Example 36, (1R,3S,5R)-2-[2-(3-Acetyl-pyrazolo[3,4-b]pyridin-1-yl)-acetyl]-2-aza-bicyclo[3.1.0] hexane-3-carboxylic acid [3-(2-fluoro-phenyl)-cyclobutyl]-amide], the IC50 is 466 nM.

Regarding `CC(=O)c1nn(CC(=O)N2[C@@H]3C[C@@H]3C[C@H]2C(=O)NC2CCC(c3ccccc3)CC2)c2cnccc12` (stereo partly drawn) [Example 37, (1R,3S,5R)-2-[2-(3-Acetyl-pyrazolo[3,4-c]pyridin-1-yl)-acetyl]-2-aza-bicyclo[3.1.0] hexane-3-carboxylic acid (4-phenyl-cyclohexyl)-amide], the 50% inhibitory concentration (IC50) amounted to 1060 nM.

With `NC(=O)c1nn(CC(=O)N2[C@@H]3C[C@@H]3C[C@H]2C(=O)N[C@H]2C[C@]2(F)c2ccccc2)c2ccccc12` [Example 38, 1-{2-[(1R,3S,5R)-3-((1S,2S)-2-fluoro-2-phenyl-cyclopropylcarbamoyl)-2-aza-bicyclo[3.1.0]hex-2-yl]-2-oxo-ethyl}-1H-indazole-3-carboxylic acid amide], the IC50 amounted to 635 nM.

Turning to `NC(=O)c1nn(CC(=O)N2[C@@H]3C[C@@H]3C[C@H]2C(=O)N[C@@H]2C[C@@]2(F)c2ccccc2)c2ccccc12` [Example 39, 1-{2-[(1R,3S,5R)-3-((1R,2R)-2-fluoro-2-phenyl-cyclopropylcarbamoyl)-2-aza-bicyclo[3.1.0]hex-2-yl]-2-oxo-ethyl}-1H-indazole-3-carboxylic acid amide], the IC50 worked out at 48 nM.

On to `NC(=O)c1nn(CC(=O)N2C[C@H](F)C[C@H]2C(=O)N[C@@H]2C[C@H]2c2ccccc2F)c2cnccc12` [Example 40, 1-(2-{(2S,4R)-4-Fluoro-2-[(1R,2S)-2-(2-fluoro-phenyl)-cyclopropylcarbamoyl]-pyrrolidin-1-yl}-2-oxo-ethyl)-1H-pyrazolo[3,4-c]pyridine-3-carboxylic acid amide], for which the concentration for half-maximal inhibition (IC50) stood at 142 nM.

Consider `NC(=O)c1nn(CC(=O)N2C[C@H](F)C[C@H]2C(=O)N[C@H]2C[C@@H]2c2ccccc2F)c2cnccc12` [Example 41, 1-(2-{(2S,4R)-4-Fluoro-2-[(1S,2R)-2-(2-fluoro-phenyl)-cyclopropylcarbamoyl]-pyrrolidin-1-yl}-2-oxo-ethyl)-1H-pyrazolo[3,4-c]pyridine-3-carboxylic acid amide], for which the IC50 was found to be 1190 nM.

For `NC(=O)c1nn(CC(=O)N2[C@@H]3C[C@@H]3C[C@H]2C(=O)N[C@H]2C[C@]2(F)c2ccccc2)c2cnccc12` [Example 42, 1-{2-[(1R,3S,5R)-3-((1S,2S)-2-Fluoro-2-phenyl-cyclopropylcarbamoyl)-2-aza-bicyclo[3.1.0]hex-2-yl]-2-oxo-ethyl}-1H-pyrazolo[3,4-c]pyridine-3-carboxylic acid amide], the concentration for half-maximal inhibition (IC50) stood at 3650 nM.

In the case of `NC(=O)c1nn(CC(=O)N2[C@@H]3C[C@@H]3C[C@H]2C(=O)N[C@@H]2C[C@@]2(F)c2ccccc2)c2cnccc12` [Example 43, 1-{2-[(1R,3S,5R)-3-((1R,2R)-2-Fluoro-2-phenyl-cyclopropylcarbamoyl)-2-aza-bicyclo[3.1.0]hex-2-yl]-2-oxo-ethyl}-1H-pyrazolo[3,4-c]pyridine-3-carboxylic acid amide], the 50% inhibitory concentration (IC50) worked out at 214 nM.

Consider `CC(=O)c1nn(CC(=O)N2[C@@H]3C[C@@H]3C[C@H]2C(=O)N[C@@H]2C[C@@]2(F)c2ccccc2)c2ncccc12` [Example 44, (1R,3S,5R)-2-[2-(3-Acetyl-pyrazolo[3,4-b]pyridin-1-yl)-acetyl]-2-aza-bicyclo[3.1.0] hexane-3-carboxylic acid ((1R,2R)-2-fluoro-2-phenyl-cyclopropyl)-amide], for which the IC50 turned out to be 66 nM.

Take `CC(=O)c1nn(CC(=O)N2[C@@H]3C[C@@H]3C[C@H]2C(=O)N[C@H]2C[C@]2(F)c2ccccc2)c2ncccc12` [Example 45, (1R,3S,5R)-2-[2-(3-Acetyl-pyrazolo[3,4-b]pyridin-1-yl)-acetyl]-2-aza-bicyclo[3.1.0] hexane-3-carboxylic acid ((1S,2S)-2-fluoro-2-phenyl-cyclopropyl)-amide]: the IC50 amounted to 10400 nM.

As for `CC(=O)c1nn(CC(=O)N2[C@@H]3C[C@@H]3C[C@H]2C(=O)N[C@@H]2C[C@@]2(F)c2ccccc2)c2cnccc12` [Example 46, (1R,3S,5R)-2-[2-(3-Acetyl-pyrazolo[3,4-c]pyridin-1-yl)-acetyl]-2-aza-bicyclo[3.1.0] hexane-3-carboxylic acid ((1R,2R)-2-fluoro-2-phenyl-cyclopropyl)-amide], the half-inhibitory concentration (IC50) was 32 nM.

In the case of `CC(=O)c1nn(CC(=O)N2[C@@H]3C[C@@H]3C[C@H]2C(=O)N[C@H]2C[C@]2(F)c2ccccc2)c2cnccc12` [Example 47, (1R,3S,5R)-2-[2-(3-Acetyl-pyrazolo[3,4-c]pyridin-1-yl)-acetyl]-2-aza-bicyclo[3.1.0] hexane-3-carboxylic acid ((1S,2S)-2-fluoro-2-phenyl-cyclopropyl)-amide], the half-inhibitory concentration (IC50) was found to be 991 nM.

Consider `Cc1cc2c(C(N)=O)nn(CC(=O)N3[C@@H]4C[C@@H]4C[C@H]3C(=O)N[C@@H]3C[C@@]3(F)c3ccccc3)c2cn1` [Example 48, 1-{2-[(1R,3S,5R)-3-((1R,2R)-2-Fluoro-2-phenyl-cyclopropylcarbamoyl)-2-aza-bicyclo[3.1.0]hex-2-yl]-2-oxo-ethyl}-5-methyl-1H-pyrazolo[3,4-c]pyridine-3-carboxylic acid amide], for which the 50% inhibitory concentration (IC50) came to 30 nM.

As to `Cc1cc2c(C(N)=O)nn(CC(=O)N3[C@@H]4C[C@@H]4C[C@H]3C(=O)N[C@H]3C[C@]3(F)c3ccccc3)c2cn1` [Example 49, 1-{2-[(1R,3S,5R)-3-((1S,2S)-2-Fluoro-2-phenyl-cyclopropylcarbamoyl)-2-aza-bicyclo[3.1.0]hex-2-yl]-2-oxo-ethyl}-5-methyl-1H-pyrazolo[3,4-c]pyridine-3-carboxylic acid amide], the concentration for half-maximal inhibition (IC50) came to 1190 nM.

`CC(=O)c1nn(CC(=O)N2[C@@H]3C[C@@H]3C[C@H]2C(=O)N[C@@H]2C[C@H]2c2cccc(Cl)c2)c2ncccc12` [Example 54, (1R,3S,5R)-2-[2-(3-Acetyl-pyrazolo[3,4-b]pyridin-1-yl)-acetyl]-2-aza-bicyclo[3.1.0]hexane-3-carboxylic acid[(1R,2S)-2-(3-chloro-phenyl)-cyclopropyl]-amide]: the IC50 came to 225 nM.

Consider `CC(=O)c1nn(CC(=O)N2[C@@H]3C[C@@H]3C[C@H]2C(=O)N[C@H]2C[C@@H]2c2cccc(Cl)c2)c2ncccc12` [Example 55, (1R,3S,5R)-2-[2-(3-acetyl-pyrazolo[3,4-b]pyridin-1-yl)-acetyl]-2-aza-bicyclo[3.1.0]hexane-3-carboxylic acid[(1S,2R)-2-(3-chloro-phenyl)-cyclopropyl]-amide], for which the IC50 came to 1580 nM.

On to `CC(=O)c1nn(CC(=O)N2[C@@H]3C[C@@H]3C[C@H]2C(=O)N[C@@H]2C[C@H]2c2cccc(Cl)c2F)c2ncccc12` [Example 56, (1R,3S,5R)-2-[2-(3-Acetyl-pyrazolo[3,4-b]pyridin-1-yl)-acetyl]-2-aza-bicyclo[3.1.0]hexane-3-carboxylic acid [(1R,2S)-2-(3-chloro-2-fluoro-phenyl)-cyclopropyl]-amide], for which the IC50 turned out to be 109 nM.

In the case of `CC(=O)c1nn(CC(=O)N2[C@@H]3C[C@@H]3C[C@H]2C(=O)N[C@H]2C[C@@H]2c2cccc(Cl)c2F)c2ncccc12` [Example 57, (1R,3S,5R)-2-[2-(3-Acetyl-pyrazolo[3,4-b]pyridin-1-yl)-acetyl]-2-aza-bicyclo[3.1.0]hexane-3-carboxylic acid [(1S,2R)-2-(3-chloro-2-fluoro-phenyl)-cyclopropyl]-amide], the IC50 is 1610 nM.

For the compound `CC(=O)c1nn(CC(=O)N2[C@@H]3C[C@@H]3C[C@H]2C(=O)N[C@@H]2C[C@H]2c2ccccc2F)c2ncccc12` [Example 63, (1R,3S,5R)-2-[2-(3-Acetyl-pyrazolo[3,4-b]pyridin-1-yl)-acetyl]-2-aza-bicyclo[3.1.0] hexane-3-carboxylic acid [(1R,2S)-2-(2-fluoro-phenyl)-cyclopropyl]-amide], the IC50 turned out to be 64 nM.

Take `CC(=O)c1nn(CC(=O)N2[C@@H]3C[C@@H]3C[C@H]2C(=O)N[C@H]2C[C@@H]2c2ccccc2F)c2ncccc12` [Example 64, (1R,3S,5R)-2-[2-(3-Acetyl-pyrazolo[3,4-b]pyridin-1-yl)-acetyl]-2-aza-bicyclo[3.1.0] hexane-3-carboxylic acid [(1S,2R)-2-(2-fluoro-phenyl)-cyclopropyl]-amide]: the half-inhibitory concentration (IC50) is 791 nM.

Regarding `CC(=O)c1nn(CC(=O)N2[C@@H]3C[C@@H]3C[C@H]2C(=O)N[C@@H]2C[C@H]2c2ccccc2Cl)c2cnccc12` [Example 65, (1R,3S,5R)-2-[2-(3-Acetyl-pyrazolo[3,4-c]pyridin-1-yl)-acetyl]-2-aza-bicyclo[3.1.0] hexane-3-carboxylic acid [(1R,2S)-2-(2-chloro-phenyl)-cyclopropyl]-amide], the half-maximal inhibitory concentration (IC50) stood at 30 nM.

Turning to `CC(=O)c1nn(CC(=O)N2[C@@H]3C[C@@H]3C[C@H]2C(=O)N[C@@H]2C[C@H]2c2ccccc2Cl)c2ncccc12` [Example 66, (1R,3S,5R)-2-[2-(3-Acetyl-pyrazolo[3,4-b]pyridin-1-yl)-acetyl]-2-aza-bicyclo[3.1.0] hexane-3-carboxylic acid [(1R,2S)-2-(2-chloro-phenyl)-cyclopropyl]-amide], the half-maximal inhibitory concentration (IC50) was found to be 44 nM.

For the compound `NC(=O)c1nn(CC(=O)N2[C@@H]3C[C@@H]3C[C@H]2C(=O)N[C@@H]2C[C@H]2c2ccccc2Cl)c2cnccc12` [Example 67, 1-(2-{(1R,3S,5R)-3-[(1R,2S)-2-(2-Chloro-phenyl)-cyclopropylcarbamoyl]-2-aza-bicyclo[3.1.0]hex-2-yl}-2-oxo-ethyl)-1H-pyrazolo[3,4-c]pyridine-3-carboxylic acid amide], the IC50 turned out to be 35 nM.
